Here are results for 4 compounds from patent publication US20170073306A1, “POTENT INHIBITORS OF HUMAN CARBONIC ANHYDRASE II AND BOVINE CARBONIC ANHYDRASE II AND THEIR MECHANISM OF ACTION” (priority 2015, published 2017).

Some results are limits rather than exact numbers.

Data set [1] deals with T1, Bovine Carbonic Anhydrase-II (bovine erythrocyte CA-II) (Bos taurus, UniProt P00921).
T1 construct: pure bovine erythrocyte CA-II; from tissue; host or cells: bovine erythrocytes
Description: Bovine carbonic anhydrase-II inhibition, 4-nitrophenyl acetate spectrophotometric assay. The data set is classed as biochemical. The conditions noted are these: 4-nitrophenyl acetate 0.7 mM, pH 7.4, 15 min preincubation; read-out: IC50 ± S.E.M. BCA-II. The protocol:
(§1) Nineteen different analogues of benzamide sulfonamides were evaluated for carbonic anhydrase-II inhibition. The rate of catalyzed reaction was monitored by the amount of product formation by using the chromogenic substrate i.e., 4-nitrophenyl acetate.
4-Nitrophenyl acetate (4-NPA) is a colorless compound which is used as a substrate in carbonic anhydrase inhibition assay. The reaction involves the hydrolysis of 4-nitrophenyl acetate into […] and 4-nitrophenol a yellow colored compound. During this experiment, HEPES-tris buffer was used at 20 mM concentration with pH 7.4.
After 15 min of incubation of the enzyme with the test compound, the substrate was added to initiate the reaction. The reaction was carried out in triplicate with different concentrations of test compounds was used.
In this assay protocol, the reaction was performed by using a 96-well flat bottom plate.
The amount of product formation was measured at 400 nm for 30 min with 1 min interval, multiplate reader SPECTRA max 340 (Molecular Devices, CA, USA) was used to monitor the product formation.
The enzyme inhibitory activities were calculated using the following formula:
% Inhibition=100−(O.D of test/O.D of control)*100
(§2) Where test is the enzyme activity with sample and control is the enzyme activity without sample. The IC50 of the compounds were calculated by using EZ-Fit Enzyme Kinetic Program (Perrella Scientific Inc. Amhrest, U.S.A).

Data set [2] in a line: MTT cytotoxicity assay. The data set is classed as cell-based. The settings on record: mouse, 3T3 mouse fibroblast cells, 3T3 cells, 50% growth inhibition, read-out: Cytotoxicity IC50 ± SD. The method, then: Cytotoxicity studies were performed using a colorimetric assay that measures the reduction of 3-(4,5-dimethythiazol-2-yl)-2,5-diphenyl tetrazolium bromide (MTT) (yellow in color), by mitochondrial enzyme (i.e. succinate dehydrogenase). The MTT enters into the mitochondria of cell, where it is reduced to an insoluble formazan salt (purple in color). The extent of MTT reduction to formazan within cells was measured spectrophotometrically. As reduction of MTT can only occur in metabolically active cells the level of activity is actually a measure of the viability of the cells^22.
Mouse fibroblast cell line 3T3 was cultured in DMEM, supplemented with 5% of FBS, 100 IU/ml of penicillin and 100 μg/ml of streptomycin, and kept at 37° C. in 5% CO2 incubator. For the preparation of cell culture 100 μL/well of cell solution (5×10^4 cells/ml) was added into 96-well plate. The plate was incubated for overnight, and fresh medium was added after the removal of old medium. The test compounds were also added in different concentrations into the plate and plate was again incubated for 48 hrs. After the completion of this incubation period 200 μL MTT (0.5 mg/ml) was added and plate was again incubated for 4 hrs, after this final incubation 100 μL of DMSO was added to each well. The level of MTT reduction to formazan was evaluated by change in absorbance at 540 nm using a micro plate reader (Spectra Max plus, Molecular Devices, CA, USA).
In general terms: Tetrazolium assays rely on reduction of a dye to a coloured formazan, in cell work by metabolically active cells.

Data set [3] concerns the target T2, Bovine Carbonic Anhydrase-II (Bos taurus, UniProt P00921).
T2 construct: pure bovine erythrocyte CA-II; from tissue; host or cells: bovine erythrocytes
As to the kind of experiment: Kinetics studies (Lineweaver-Burk, Dixon plots) against Bovine Carbonic Anhydrase-II. The conditions noted are these: for Type of Inhibition: Lineweaver-Burk / Dixon plots; for Vmax app: apparent Vmax with inhibitor (0.2-0.00625 μM); for Vmax: enzyme Vmax without inhibitor; for Ki: from secondary replots / Dixon plot, read-out: Ki. The data set is classed as biochemical. Details: Vmax app: unit not given here. The method, then:
FIG. 2B depicts the double reciprocal plot for Ki determination which is between Slope Vs Inhibitor Conc.
FIG. 3B depicts the double reciprocal plot for Ki determination which is between Slope Vs Inhibitor Conc.
Kinetics studies were performed for each analogue. […] The Grafit version 7.0 was used for the construction of Lineveawer-Burk plots and their secondary replots.

The target in data set [4] is T3, Human Carbonic Anhydrase-II (human erythrocyte CA-II) (Homo sapiens, UniProt P00918).
T3 construct: purified human erythrocyte CA-II; from tissue; host or cells: human erythrocytes
Description: HCA-II inhibitory activity, 4-nitrophenyl acetate spectrophotometric assay. The data set is classed as biochemical. The conditions noted are these: 4-nitrophenyl acetate 0.7 mM, pH 7.4, 25° C., 15 min preincubation; read-out: IC50 ± S.E.M. HCA-II. The protocol:
as §1
Hydrolysis of 4-NPA (a colorless compound): yields 4-nitrophenol and […]. The reaction is monitored by quantifying the formation of 4-nitrophenol, a yellow colored compound.
In successive experiments, HEPES-tris was used as a buffer for the reaction at final concentration of 20 mM, with 7.4 pH. The total reaction volume of 200 μL includes, 140 μL of the HEPES-tris, 20 μL of test compound diluted in DMSO (20 μL of DMSO as a control sample), 20 μL of purified human erythrocyte CA-II (0.1 mg/mL) prepared in deionized water and 20 μL of a solution of 4-NPA (0.7 mM diluted in ethanol). Adhesion of enzyme with the plastic-ware was avoided by the addition of bovine serum albumin (1 mg/mL).
The 20 μL of test compound was incubated with enzyme for a period of 15 min. The rate of product formation was monitored with the addition of 20 μL substrate prepared in ethanol at a final concentration of 0.7 mM 4-nitrophenyl acetate at 25° C. for a period of 30 min with regular interval of 1 min.
The assay was performed in triplicates by using 96-well flat bottom plate.
The enzyme inhibitory activities were calculated using the following formula: […]
as §2

T1 sequence (P00921 whole entry): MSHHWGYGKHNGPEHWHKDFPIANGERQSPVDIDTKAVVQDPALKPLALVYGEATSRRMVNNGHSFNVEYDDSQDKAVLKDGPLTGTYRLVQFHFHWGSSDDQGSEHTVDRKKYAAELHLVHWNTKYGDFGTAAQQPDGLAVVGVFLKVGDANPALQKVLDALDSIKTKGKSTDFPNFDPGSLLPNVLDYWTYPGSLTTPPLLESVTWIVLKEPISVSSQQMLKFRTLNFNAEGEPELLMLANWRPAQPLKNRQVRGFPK
T2 sequence (P00921 whole entry): as above

For `COc1cc(OC)cc(C(=O)NC(=S)Nc2ccc(S(N)(=O)=O)cc2)c1` [Compound 16, 3,5-Dimethoxy-N-(4-sulfamoylphenylcarbamothioyl)benzamide], the IC50 in data set [1] came to 110 ± 5 nM. Further, the IC50 at 48 h in data set [2] is over 30000 nM. Besides, in data set [3], the “Type of Inhibition” value is given as “Noncompetitive”, the Vmax app amounted to 37.31, the Vmax is 72.46 (μM/L/min)^−1 and the Ki came to 400 nM. Besides, the IC50 in data set [4] was found to be 230 ± 30 nM.
For `NS(=O)(=O)c1ccc(NC(=S)NC(=O)C2CCCO2)cc1` (stereo not drawn) [Compound 17, N-(4-Sulfamoylphenylcarbamothioyl)tetrahydrofuran-2-carboxamide], the IC50 in data set [1] is 120 ± 20 nM. Also, in data set [2], the IC50 at 48 h is over 30000 nM. Besides, in data set [3], the “Type of Inhibition” value is given as “Mixed type”, the Vmax app came to 26.88, the Vmax was 111.11 (μM/L/min)^−1 and the Ki worked out at 59 nM. Besides, the IC50 in data set [4] is 270 ± 60 nM.
In the case of `CCC(C(=O)NC(=S)Nc1ccc(S(N)(=O)=O)cc1)c1ccccc1` (stereo not drawn) [Compound 18, 2-Phenyl-N-(4-sulfamoylphenylcarbamothioyl)butanamide], the IC50 in data set [1] amounted to 200 ± 1 nM. The IC50 at 48 h in data set [2] is over 30000 nM. In addition, in data set [3], the “Type of Inhibition” value is reported as “Mixed type”, the Vmax app worked out at 12.93, the Vmax was 42.73 (μM/L/min)^−1 and the Ki amounted to 160 nM. In data set [4], the concentration for half-maximal inhibition (IC50) came out at 250 ± 10 nM.
As for `NS(=O)(=O)c1ccc(NC(=S)NC(=O)c2ccc(Cl)cc2Cl)cc1` [Compound 19, 2,4-Dichloro-N-(4-sulfamoylphenylcarbamothioyl)benzamide], the IC50 in data set [1] was found to be 60 ± 1 nM. Further, the half-inhibitory concentration (IC50) at 48 h in data set [2] is over 30000 nM. Moreover, in data set [3], the Vmax app is listed as 12.33, the Vmax is 79.36 (μM/L/min)^−1 and the Ki came out at 46 nM. In data set [4], the IC50 turned out to be 100 ± 40 nM.

One may read the IC50 as the concentration that gives 50% inhibition.
